Data as given in ChEMBL document CHEMBL1134983, “Core-modified sordaricin derivatives: synthesis and antifungal activity” (2002).
Converted amounts (≈) assume the structure as drawn.

Experiments:
Assay type in all cases: functional
Candida albicans [1] = experiment: Anti-fungal activity against Candida albicans A28660 (WT)
Nakaseomyces glabratus = experiment: Anti-fungal activity against Candida glabrata A28790 (WT)
Candida albicans [2] = experiment: Anti-fungal activity against Candida albicans A28235 (WT)

MIC (Candida albicans [1])	MIC (Nakaseomyces glabratus)	MIC (Candida albicans [2])	Compound
64 µg/mL (≈ 148 µM)	> 128 µg/mL	32 µg/mL (≈ 74 µM)	CCCCCCOCC12C[C@@H]3[C@H](C)[C@@H](O)C[C@H]3C3(C=O)CC1C=C(C(C)C)[C@@]23C(=O)O
32 µg/mL (≈ 64.3 µM)	64 µg/mL (≈ 129 µM)	32 µg/mL (≈ 64.3 µM)	CCCCCCOCC12C[C@@]34[C@@H](CC[C@]3(C)C4(Cl)Cl)C3(C=O)CC1C=C(C(C)C)[C@@]23C(=O)O
0.06 µg/mL (≈ 0.144 µM)	0.125 µg/mL (≈ 0.3 µM)	0.06 µg/mL (≈ 0.144 µM)	CCCCCCOCC12C[C@@H]3[C@H](C)CC[C@H]3C3(C=O)CC1C=C(C(C)C)[C@@]23C(=O)O
0.5 µg/mL (≈ 1.21 µM)	8 µg/mL (≈ 19.3 µM)	0.125 µg/mL (≈ 0.302 µM)	CCCCCCOCC12CC3=C(C)CC[C@H]3C3(C=O)CC1C=C(C(C)C)[C@@]23C(=O)O
8 µg/mL (≈ 18.6 µM)	32 µg/mL (≈ 74.3 µM)	4 µg/mL (≈ 9.29 µM)	CCCCCCOCC12C[C@@H]3[C@H](C)C(=O)C[C@H]3C3(C=O)CC1C=C(C(C)C)[C@@]23C(=O)O
0.5 µg/mL (≈ 1.15 µM)	1 µg/mL (≈ 2.3 µM)	0.25 µg/mL (≈ 0.575 µM)	CCCCCCOCC12C[C@@H]3[C@H](C)[C@H](F)C[C@H]3C3(C=O)CC1C=C(C(C)C)[C@@]23C(=O)O
8 µg/mL (≈ 18.5 µM)	32 µg/mL (≈ 74 µM)	4 µg/mL (≈ 9.25 µM)	CCCCCCOCC12C[C@H]3[C@@H](CC[C@]3(C)O)C3(C=O)CC1C=C(C(C)C)[C@@]23C(=O)O
–	> 128 µg/mL	16 µg/mL (≈ 32.5 µM)	COC1C(O)[C@H](O)[C@H](OC[C@@]23C[C@@H]4[C@H](C)CC[C@H]4[C@@]4(C=O)CC2C=C(C(C)C)[C@@]34C(=O)O)O[C@@H]1C (single isomer, unassigned) [SORDARIN]
